# Assays:
# Assay type in all cases: in vivo
# [1] = test system: larvae of the mustard beetle (Phaedon cochleariae); assay: Phaedon cochleariae larvae test (oil seed rape seed treatment)
# Method: (§1) The expected efficacy of a given combination of two compounds is calculated as follows (see Colby, S. R., “Calculating Synergistic and antagonistic Responses of Herbicide Combinations”, Weeds 15, pp. 20-22, 1967):
# (§2) If • X is the efficacy expressed in % mortality of the untreated control for test compound A at a concentration of m ppm respectively m g/ha, • Y is the efficacy expressed in % mortality of the untreated control for test compound B at a concentration of n ppm respectively n g/ha, • E is the efficacy expressed in % mortality of the untreated control using the mixture of A and B at m and n ppm respectively m and n g/ha, then is
# (§3) If the observed insecticidal efficacy of the combination is higher than the one calculated as “E”, then the combination of the two compounds is more than additive, i.e., there is a synergistic effect.
# (§4) If not mentioned otherwise, the crystalline modification I of 4-{[(6-chloropyrid-3-yl)methyl](methyl)amino}furan-2(5H)-one has been prepared as a water-dispersible or water-soluble powder in an active ingredient concentration of 70% (wt/wt) involving the following formulation auxiliaries, whereas the amount of auxiliaries sums up to 100 wt. %:
# (§5) The auxiliaries were mixed with the appropriate amount of the crystalline modification I of 4-{[(6-chloropyrid-3-yl)methyl](methyl)amino}furan-2(5H)-one. There is no water or solvent added. To enable the dry mixture to stick on the seed, the seed were treated with a minimal amount of water, namely […] for 2 g canola seeds, and 800 μl für 20 g cotton seeds
# (§6) Seeds of Oil seed rape were treated with the compounds or mixtures and sown. Ca. 35 days after germination the plants were infested with a larvae of the mustard beetle (Phaedon cochleariae). After the specified period of time, the mortality in % is determined. 100% means that all the beetle larvae have been killed; 0% means that none of the beetle larvae have been killed.
# [2] = test system: green peach aphid (Myzus persicae); assay: Myzus persicae test (oil seed rape seed treatment)
# Method: as §1, §2, §3, §4, §5
# as §6, with “mixed population” for “larvae”, “green peach aphid (Myzus persicae).” for “mustard beetle (Phaedon cochleariae).”, “aphids” for “beetle larvae”
# [3] = test system: cotton aphid (Aphis gossypii); assay: Aphis gossypii test (cotton seed treatment)
# Method: as §1, §2, §3, §4, §5
# Cotton seeds were treated with the compounds or mixtures and sown. 10 days after germination the plants were infested with a mixed population of the cotton aphid (Aphis gossypii). After the specified period of time, the mortality in % is determined. 100% means that all the aphids have been killed; 0% means that none of the aphids have been killed.
smiles,measurement,setting,value
CN(Cc1ccc(Cl)nc1)C1=CC(=O)OC1 [4-{[(6-chloropyrid-3-yl)methyl](methyl)amino}furan-2(5H)-one],Kill rate [in % after 4 days],[1]; 0.01 mg ai/grain,0%
same,Kill rate [in % after 5 days],[1]; 0.025 mg ai/grain,5.56%
same,Kill rate [in % after 2 days],[2]; 0.01 mg ai/grain,10%
same,Kill rate [in % after 7 days],[2]; 0.01 mg ai/grain,0%
same,Kill rate [in % after 3 days],[2]; 0.025 mg ai/grain,0%
same,Kill rate [in % after 2 days],[3]; 0.01 mg ai/grain,63%
same,Kill rate [in % after 1 day],[3]; 0.025 mg ai/grain,0%
same,Kill rate [in % after 2 days],[3]; 0.025 mg ai/grain,80%
Cn1cc(C(=O)Nc2ccc(F)cc2-c2ccc(Cl)c(Cl)c2)c(C(F)F)n1 [Bixafen],Kill rate [in % after 2 days],[3]; 0.5 mg ai/grain,0%
CCC1(C(=O)N[C@H](C)c2ccc(Cl)cc2)C(C)C1(Cl)Cl (some centres unmarked) [Carpropamid],Kill rate [in % after 1 day],[3]; 0.5 mg ai/grain,0%
CSC1=N[C@@](C)(c2ccccc2)C(=O)N1Nc1ccccc1 [Fenamidone],Kill rate [in % after 3 days],[2]; 0.5 mg ai/grain,0%
same,Kill rate [in % after 7 days],[2]; 0.5 mg ai/grain,0%
CC1(C(=O)Nc2ccc(O)c(Cl)c2Cl)CCCCC1 [Fenhexamid],Kill rate [in % after 2 days],[3]; 0.5 mg ai/grain,0%
"N#Cc1c[nH]cc1-c1cccc2c1OC(F)(F)O2 [Fluodioxonil, Fludioxonil]",Kill rate [in % after 4 days],[1]; 05 mg ai/grain (so in the source),0%
O=C(NCc1ncc(C(F)(F)F)cc1Cl)c1c(Cl)cccc1Cl [Fluopicolide],Kill rate [in % after 5 days],[1]; 1 mg ai/grain,0%
CCO[PH](=O)O [Fosetyl-Al],Kill rate [in % after 2 days],[2]; 1 mg ai/grain,0%
CON=C(C(=O)OC)c1ccccc1CON=C(C)c1cccc(C(F)(F)F)c1 [Trifloxystrobin],Kill rate [in % after 1 day],[3]; 0.5 mg ai/grain,0%
